Assay results reported in patent US10688099B2, “Methods for modulating the amount of RNA transcripts” (PTC Therapeutics, Inc., priority 2013, dated 2020).

Tested on: RNA isoforms in PNN 1-46 SMA type I patient-derived fibroblasts
Experiment: RNA Abundance Modulation (RNA isoform abundance, iFPM, HiSeq RNA sequencing)
Assay type: cell-based, human
Details: 3 μM
Experimental: Cells from a cell line of interest are cultured in conditions sufficient to yield the number of cells capable of generating enough RNA for subsequent sequencing steps. Cells from the tested cell line are contacted with a compound described herein.
To culture said cells, they are seeded, at appropriate concentrations in a volume of media in a cell culture container and incubated for 4, 5, 6, 7, 8, 9, 10, or more hours. A concentrated solution of compound in a vehicle (e.g., DMSO) is then added in sufficient volume to result in the intended final concentration of the compound, for example 100 nM, 500 nM, 1 μM, 5 μM, 10 μM, 15 μM, 20 μM, or more. The cells may also be treated with vehicle alone, as a control. A number of replicates of each concentration or control may be made (e.g., 2 replicates). The cells are then incubated at a constant temperature appropriate for cell culture of the particular cell line (e.g., 37° C.) for 6, 12, 18, 24, 48, or more hours. After incubation, the growth medium is removed and the cells are washed with the appropriate buffer (e.g., PBS). Cells are then removed from adherence to the cell culture container by treatment with a solution containing trypsin, and the trypsin subsequently quenched with the appropriate volume of buffer (e.g., DMEM-FBS). The cells are then pelleted with gentle centrifugation (e.g., ≤90×g centrifugal force) and resuspended in a buffer to lyse the cells for extraction of RNA. The cell lysates may then be frozen (e.g., at −80° C.) or, alternately, may immediately be used in a procedure to purify the RNA (e.g. by use of the RNEASY PLUS® minikit). The RNA from cell lysates is eluted in the appropriate volume of buffer (e.g., RNEASE-FREE H2O®). The resulting purified RNA may then be sequenced (e.g., using RNASeq) or analyzed using a human exon array (e.g., by GENECHIP® human exon array) to determine changes in the RNA levels in those cells treated with compound compared to those cells treated only with DMSO. The purified RNA may also be quantified by other methods known in the art.
Using the RNA data obtained from sequencing, exon array, or other methods, a statistical analysis can reveal changes in the RNA levels of compound-treated compared with control. For example, t-test p-values may be calculated for the data obtained through sequencing and exon array methods in order to compare compound-treated cells to those treated with the DMSO control. […] Analysis of the sequencing and exon array data may then also yield predictions about the cause of the aberrant amount of an RNA transcript in the cells (e.g., perturbation of RNA splicing, RNA transcription, or RNA stability). These predictions may be further confirmed by methods known in the art. For example, RT-PCR and RT-qPCR may be used to confirm the change in amount of RNA transcripts for one or more particular transcripts of interest.
Following the methods described above in Example 1, PNN 1-46 SMA type I patient-derived fibroblasts were treated with 300 nM or 3 μM Compounds 774 and 808 in 0.5% DMSO.
700,000 cells were seeded in 10 mL of medium (DMEM plus 10% FBS) in a T-75 flask. Cells were allowed to attach for at least 4 hrs, after which 50 μL of a 200× compound solution (100% DMSO) was added to each well, and the plate was incubated at 37° C. for 24 hrs.
At the end of the incubation period, the supernatant was removed and the cells where washed with PBS. TrypLE (Invitrogen) express solution was added (e.g. 1.5 mL per one T75 flask). The flasks were incubated for 3 to 5 min at 37° C. The trypsin was then quenched, e.g., by adding 10 mL DMEM-FBS.
Next, the cells were pelleted using gentle centrifugation without exceeding 90×g centrifugal force. The supernatant was removed and the cell pellet was re-suspended in 600 μL RLT buffer (the RLT buffer was supplemented with beta-mercaptoethanol according to the RNeasy protocol manual) by pipetting up and down until the pellet was completely dissolved […]

CCc1nc(C)cn2nc(-c3cc(=O)n4cc(C5CCN(C)CC5)cc(C)c4n3)cc12 [Compound 774]
L2FC (x + 1) (UBE2V1 NM_022442): −1.807
L2abs (Cpd-DMSO) (UBE2V1 NM_022442): 1.32
abs (Cpd-DMSO) (UBE2V1 NM_022442): 2 iFPM
amp FC (x + 1) (UBE2V1 NM_022442): 3.50
ave Cpd (UBE2V1 NM_022442): 0 iFPM
FC (x + 1) (UBE2V1 NM_199144): 9.0627
L2FC (x + 1) (UBE2V1 NM_199144): 3.180
L2abs (Cpd-DMSO) (UBE2V1 NM_199144): 3.01
abs (Cpd-DMSO) (UBE2V1 NM_199144): 8 iFPM
amp FC (x + 1) (UBE2V1 NM_199144): 9.06
ave Cpd (UBE2V1 NM_199144): 8 iFPM
FC (x + 1) (UBE2V1 NM_001032288): 1.0807
L2FC (x + 1) (UBE2V1 NM_001032288): 0.112
L2abs (Cpd-DMSO) (UBE2V1 NM_001032288): 8.47
abs (Cpd-DMSO) (UBE2V1 NM_001032288): 355 iFPM
amp FC (x + 1) (UBE2V1 NM_001032288): 1.08
ave Cpd (UBE2V1 NM_001032288): 4751 iFPM
FC (x + 1) (UBE2V1 NM_001257393): 0.0796
L2FC (x + 1) (UBE2V1 NM_001257393): −3.651
L2abs (Cpd-DMSO) (UBE2V1 NM_001257393): 3.53
abs (Cpd-DMSO) (UBE2V1 NM_001257393): 12 iFPM
amp FC (x + 1) (UBE2V1 NM_001257393): 12.56
ave Cpd (UBE2V1 NM_001257393): 0 iFPM
FC (x + 1) (UBE2V1 NM_001257394): 0.1697
L2FC (x + 1) (UBE2V1 NM_001257394): −2.559
L2abs (Cpd-DMSO) (UBE2V1 NM_001257394): 4.01
abs (Cpd-DMSO) (UBE2V1 NM_001257394): 16 iFPM
amp FC (x + 1) (UBE2V1 NM_001257394): 5.89
ave Cpd (UBE2V1 NM_001257394): 2 iFPM
FC (x + 1) (UBE2V1 NM_001257397): 0.5713
L2FC (x + 1) (UBE2V1 NM_001257397): −0.808
L2abs (Cpd-DMSO) (UBE2V1 NM_001257397): 3.18
abs (Cpd-DMSO) (UBE2V1 NM_001257397): 9 iFPM
amp FC (x + 1) (UBE2V1 NM_001257397): 1.75
ave Cpd (UBE2V1 NM_001257397): 11 iFPM
FC (x + 1) (UBE2V1 NM_001257399): 1.1595
L2FC (x + 1) (UBE2V1 NM_001257399): 0.214
L2abs (Cpd-DMSO) (UBE2V1 NM_001257399): 4.66
abs (Cpd-DMSO) (UBE2V1 NM_001257399): 25 iFPM
amp FC (x + 1) (UBE2V1 NM_001257399): 1.16
ave Cpd (UBE2V1 NM_001257399): 182 iFPM
FC (x + 1) (UBE2V1 NR_047554): 0.0730
L2FC (x + 1) (UBE2V1 NR_047554): −3.777
L2abs (Cpd-DMSO) (UBE2V1 NR_047554): 8.39
abs (Cpd-DMSO) (UBE2V1 NR_047554): 337 iFPM
amp FC (x + 1) (UBE2V1 NR_047554): 13.71
ave Cpd (UBE2V1 NR_047554): 25 iFPM
FC (x + 1) (UBE2V1 NR_047555): 0.9261
L2FC (x + 1) (UBE2V1 NR_047555): −0.111
L2abs (Cpd-DMSO) (UBE2V1 NR_047555): −1.09
abs (Cpd-DMSO) (UBE2V1 NR_047555): 0 iFPM
amp FC (x + 1) (UBE2V1 NR_047555): 1.08
ave Cpd (UBE2V1 NR_047555): 5 iFPM
FC (x + 1) (UBE2V1 NR_047556): 0.5268
L2FC (x + 1) (UBE2V1 NR_047556): −0.925
L2abs (Cpd-DMSO) (UBE2V1 NR_047556): 3.88
abs (Cpd-DMSO) (UBE2V1 NR_047556): 15 iFPM
amp FC (x + 1) (UBE2V1 NR_047556): 1.90
ave Cpd (UBE2V1 NR_047556): 15 iFPM
FC (x + 1) (UCHL5 AK225794): 0.7328
L2FC (x + 1) (UCHL5 AK225794): −0.448
L2abs (Cpd-DMSO) (UCHL5 AK225794): 3.79
abs (Cpd-DMSO) (UCHL5 AK225794): 14 iFPM
amp FC (x + 1) (UCHL5 AK225794): 1.36
ave Cpd (UCHL5 AK225794): 37 iFPM
FC (x + 1) (UCHL5 AK316064): 1.3941
L2FC (x + 1) (UCHL5 AK316064): 0.479
L2abs (Cpd-DMSO) (UCHL5 AK316064): 4.93
abs (Cpd-DMSO) (UCHL5 AK316064): 30 iFPM
ave Cpd (UCHL5 AK316064): 106 iFPM
FC (x + 1) (UCHL5 BC015381): 1.2220
L2FC (x + 1) (UCHL5 BC015381): 0.289
L2abs (Cpd-DMSO) (UCHL5 BC015381): 1.34
abs (Cpd-DMSO) (UCHL5 BC015381): 3 iFPM
ave Cpd (UCHL5 BC015381): 13 iFPM
